Experimental findings from patent publication US20070185176A1, “Heparanase inhibitors and uses thereof” (Insight Bioharmaceuticals Ltd., priority 2004, published 2007) are described below.

The test system of one assay is HT1080 cells. As to the kind of experiment: In vitro assay of invasion inhibition (BD BioCoat Angiogenesis System, matrigel). It counts as cell-based, human. Conditions: for Invasion: HT1080 cells through matrigel, non-toxic concentration, 22 hours. The procedure:
(c) In Vitro Assay of Invasion Inhibition by Heparanase Inhibitors
The ability of the compounds of the invention to inhibit cell invasion was determined quantitatively by the in vitro Endothelial Cell Migration assay using a BD BioCoat Angiogenesis System kit. The kit consists of a 24-multiwell insert plate (FluoroBlok, BD Falcon) containing a microporous (3.0 μm pore size) polyethylene terephthalate (PET) membrane that is capable of blocking fluorescence completely (>99% efficiency). This membrane is uniformly coated with matrigel (BD Matrigel Matrix). The uniform layer of matrigel matrix serves as a reconstituted authentic basement membrane in vitro, providing a true barrier to non-invasive cells, but allowing endothelial cells to attach to the membrane and freely migrate towards an angiogenic stimulus in the lower chamber of the insert plate. Post-labeling the cells with a fluorescent dye and measuring the fluorescence of invading cells in a fluorescent plate reader, provides quantitative measurement of cell invasion.
To cover the optimal seeding density for HT1080 cells, suspensions containing various cell concentrations were prepared: 1 ml of 3×10^5 cells/ml, 8 ml of 1.5×10^5 cells/ml and 1 ml of 0.75×10^5 cells/ml. The top chambers of each well in the inserts was filled with 0.25 ml cell-suspension, […] DMEM containing 5% fetal calf serum and an inhibitor solution. The plates were incubated for 22 hours at 37° C. and 8% CO2 atmosphere. At the end of incubation, the medium was aspirated from the upper chambers, and the insert was transferred into a second 24-well plate containing 0.5 ml/well of the fluorescent dye Calcein AM solution (4 μg/ml per plate, prepared from 50 μg Calcein AM dissolved in 20 μl DMSO and 12.5 ml of warm HBSS medium), and incubated for 90 minutes at 37° C., 8% CO2 atmosphere. Fluorescence of invaded cells was read in a fluorescence plate reader with bottom read capabilities at excitation/emission wavelength of 485/530 nm, without further manipulation. Only those labeled cells that have invaded the matrigel and passed through the pores of the PET membrane, were detected.

The target in assay [1] is T1, human recombinant heparanase (h-hpa) (Homo sapiens, UniProt Q9Y251).
T1 sequence (Q9Y251 158-543 limits assumed): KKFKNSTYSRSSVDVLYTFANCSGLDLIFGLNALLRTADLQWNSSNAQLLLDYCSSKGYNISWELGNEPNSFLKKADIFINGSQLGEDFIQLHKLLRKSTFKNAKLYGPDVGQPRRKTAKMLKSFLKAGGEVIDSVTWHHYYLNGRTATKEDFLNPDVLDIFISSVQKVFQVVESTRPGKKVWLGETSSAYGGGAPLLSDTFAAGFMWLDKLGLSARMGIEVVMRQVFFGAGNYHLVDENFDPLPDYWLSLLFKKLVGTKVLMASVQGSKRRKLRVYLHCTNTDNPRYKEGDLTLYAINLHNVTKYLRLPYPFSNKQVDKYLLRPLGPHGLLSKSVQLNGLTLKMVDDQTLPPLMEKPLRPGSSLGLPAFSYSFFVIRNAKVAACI
T1 sequence (Q9Y251 36-109 limits assumed): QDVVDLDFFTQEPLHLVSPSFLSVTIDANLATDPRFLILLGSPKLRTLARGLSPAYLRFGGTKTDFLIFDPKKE
Briefly: In vitro dimethylmethylene blue (DMB) assay for heparanase activity.
Procedure: (a) In Vitro Dimethylmethylene Blue (DMB) Assay for Heparanase Activity
Heparin Sepharose CL-6B beads were added up to the top of the wells of a multiscreen column loader (Millipore). A 96-well multiscreen plate containing 0.65 μm hydrophilic, low protein binding, Durapore membrane (Millipore) was placed, upside down, on top of the multiscreen column loader. The column loader and the multiscreen plate were held together, turned over, and the beads were uniformly transferred from the column loader to the multiscreen plate (Millipore, MADVM 650). Double-distilled water (DDW) was then added to the beads, which were allowed to swell for one minute, and then washed (three times) with DDW under vacuum. Heparin concentration was estimated to be 10 μM/well.
To each well, phosphate-buffered saline (PBS) containing 1% bovine serum albumin (BSA; 70 μl/well) and DMB (32 mg of DMB were dissolved in 5 ml ethanol, diluted to 1 liter with formate buffer containing 4 g sodium formate and 4 ml formic acid; 120 μl/well) were added. Color was developed after 5 minutes, and the absorbance of the samples was determined using a microplate reader (Spectra Max, Molecular Devices) at 530 nm with 570 nm as reference. The absorbance correlated to heparanase activity. As a control, heparanase was added to the heparin Sepharose swollen beads in the multiscreen plate and the heparanase reaction products were filtered immediately thereafter and the absorbance of these control samples was subtracted from all other samples.
The cell extracts were centrifuged and resuspended in 20 mM phosphate citrate buffer, pH 5.4 containing 50 mM NaCl. The cells were lysed by three cycles of freezing and thawing. The cell lysates were centrifuged (10000×g for 5 min), supernatants were collected and then assayed for heparanase activity using the DMB assay.
The partially purified human recombinant heparanase or the crude cell extracts expressing either human or mouse recombinant heparanase were added for a 3-hour incubation and the reaction continued as described above. Absorbance of the developing color was measured as described above.

As to `CCCCCCCCCCCCCCCCCC(=O)NNC(=O)CC(=O)Nc1ccccc1C(=O)O` [Compound 2], in the assay with HT1080 cells, the “inhibition of cell invasion” value was “effective inhibitors of cell invasion” and the Invasion result is “yes”. For the same compound, in assay [1], the IC50 worked out at 1700 nM.
Consider `CCCCCCCCCCCCCCCCCC(=O)NC1=NN(c2ccc(Oc3ccccc3)c(S(=O)(=O)O)c2)C(=O)C1/N=N/c1cc(C(=O)O)c(O)cc1Cl` (stereo not shown) [Compound 9], for which, in the assay with HT1080 cells, the Invasion result is recorded as “yes”. In addition, the IC50 in assay [1] stood at 160 nM.
For `CCCCCCCCCCCCCCCCCC(=O)NC1=NN(c2ccc(Oc3ccccc3)c(S(=O)(=O)O)c2)C(=O)C1/N=N/c1cc(C(=O)OC)ccc1O` (stereo not shown) [Compound 18] the same measures were “yes” and 290 nM.
For `CCCCCCCCCCCCCCCCCC1=NN(c2ccc(Oc3ccc(OCC)cc3)c(S(=O)(=O)O)c2)C(=O)C1` [Compound 24] the same measures were “yes” and 630 nM.
Taken in the same sequence, the figures for `CCCCCCCCCCCCCCCCCCN(C(=O)c1cc(Br)c2ccccc2c1O)c1cc(C(=O)O)cc(C(=O)O)c1` [Compound 43] were “yes” and 550 nM.
Turning to `CCCCCCCCCCCCCCCCCC1=NN(c2ccc(Oc3ccccc3)c(S(=O)(=O)O)c2)C(=O)C1` [Compound 29], the Invasion result in the assay with HT1080 cells is reported as “yes”. The IC50 in assay [1] is 320 nM.
